# Measurements taken from US4337249A, “Modulators of the complement system” (American Cyanamid Company, priority 1981, dated 1982).
# Where a name gives a salt, the structure may show the parent alone.
# Columns and labels:
# [1] = system: serum complement activity; assay: Guinea Pig Intraperitoneal Test (GPIP); assay type: in vivo; conditions: 200 mg kg i.p., versus simultaneous controls
# Procedure: (§1) An active inhibitor protects C2 from C1 and C4; (ii) Cap 50 Test Here, appropriate amounts of the test compound are added to a pool of guinea pig serum in vitro, after which the undiluted serum capillary tube assay of U.S. Pat. No. 3,876,376 is run. The concentration of compound inhibiting 50% is reported; and (iii) Guinea Pig Intraperitoneal Test (GPIP)--Guinea pigs weighing about 300 g are dosed intraperitoneally (i.p.) with 200 mg kg of the test compound dissolved in saline and adjusted to pH 7-8. Approximately 0.4 ml blood samples, taken by orbital sinus puncture 2 hours and 6 hours after injections, are collected directly into centrifuge tubes; 5 ml blood samples, taken by decapitation 24 hours after injection, are collected directly into beakers. The samples are allowed to clot, centrifuged, and the resultant sera are assayed for complement activity using the capillary complement assay. Percent inhibition are calculated by comparison with simultaneous controls. The results of the GPIP appear in Table I together with results of Test Code 026 and Cap 50.
# activated human C1 = molecular target: T1, activated human C1 (Homo sapiens, UniProt P09871); assay: Test Code 026 (C1 inhibitor); assay type: biochemical; conditions: serial twofold dilution assay; higher well number indicates higher activity; protection of human C2 from C1 in presence of C4
# T1 sequence (P09871 438-688 limits assumed): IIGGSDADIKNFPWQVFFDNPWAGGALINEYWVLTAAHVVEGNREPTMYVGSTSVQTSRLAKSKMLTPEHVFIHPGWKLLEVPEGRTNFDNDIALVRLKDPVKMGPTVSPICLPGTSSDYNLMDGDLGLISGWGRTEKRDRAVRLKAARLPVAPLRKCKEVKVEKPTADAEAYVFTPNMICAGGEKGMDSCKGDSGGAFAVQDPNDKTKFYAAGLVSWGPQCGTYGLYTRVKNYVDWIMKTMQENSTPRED
# T1 sequence (P09871 16-437 limits assumed): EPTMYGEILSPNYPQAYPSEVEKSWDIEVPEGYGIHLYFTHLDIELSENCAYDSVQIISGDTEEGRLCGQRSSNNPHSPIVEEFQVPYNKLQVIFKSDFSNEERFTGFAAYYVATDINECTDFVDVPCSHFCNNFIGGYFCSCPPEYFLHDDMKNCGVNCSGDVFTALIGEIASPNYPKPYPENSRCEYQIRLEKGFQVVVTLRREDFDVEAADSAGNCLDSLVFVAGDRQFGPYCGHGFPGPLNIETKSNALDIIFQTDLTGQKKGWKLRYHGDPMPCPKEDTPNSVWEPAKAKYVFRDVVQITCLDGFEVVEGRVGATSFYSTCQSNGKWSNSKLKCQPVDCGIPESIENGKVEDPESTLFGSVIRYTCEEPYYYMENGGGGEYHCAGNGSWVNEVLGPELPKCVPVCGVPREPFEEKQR
# Procedure: as §1
# [2] = system: complement in pool of guinea pig serum; assay: Cap 50 Test (undiluted serum capillary tube assay); assay type: biochemical
# Procedure: as §1
smiles,measurement,setting,value
"O=C(C=Cc1ccc(OS(=O)(=O)O)c(OS(=O)(=O)O)c1)N[C@@H]1O[C@H](COS(=O)(=O)O)[C@@H](O[C@H]2O[C@H](COS(=O)(=O)O)[C@@H](OS(=O)(=O)O)[C@H](OS(=O)(=O)O)[C@H]2OS(=O)(=O)O)[C@H](OS(=O)(=O)O)[C@H]1OS(=O)(=O)O [N-(4-O-α-D-Glucopyranosyl-β-D-glucopyranosyl)-3,4-dihydroxycinnamamide, nonakis (H-sulfate), (nonaester), nonasodium salt]","In vivo Activity (Guinea pig % Inhibition) Intraperitoneal, 2 hours",[1]; serum 2 hours after injection,63 % Inhibition
same,"In vivo Activity (Guinea pig % Inhibition) Intraperitoneal, 6 hours",[1]; serum 6 hours after injection,17 % Inhibition
same,"In vivo Activity (Guinea pig % Inhibition) Intraperitoneal, 24 hours",[1]; serum 24 hours after injection,2 % Inhibition
same,In vitro Activity C1 026 Wells,activated human C1,8 (9) Wells
same,In vitro Activity Cap 50 (concentration of compound inhibiting 50%),[2],304
